{
  "source": "patent US20080058213A1",
  "about": "“Benzoxazole Compounds” (priority 2004, published 2008)",
  "assay_type_in_all_cases": "in vivo",
  "key": {"[1]": {"test_system": "common lambsquaters (Chenopodium album)", "test": "Soil treatment test for upland field (Test Example 2): common lambsquaters", "settings": "soil treatment before germination, examined after 3 weeks", "procedure,_shortened": "(§1)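 Upland soil in 1/3,000 are pots was seeded and covered; compounds formulated as wettable powders, diluted with water to the prescribed active-ingredient dose, were sprayed uniformly onto the soil surface pre-emergence at 15 liters per are. After 3 weeks in a glasshouse at 25° C average, growth inhibition versus untreated control was graded 0–5.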"}, "wheat [2]": {"test_system": "wheat", "test": "Soil treatment test for upland field (Test Example 2): phytotoxicity to wheat", "settings": "soil treatment before germination, examined after 3 weeks"}, "southern crabgrass": {"test_system": "southern crabgrass", "test": "Foliage treatment test for upland field (Test Example 3): southern crabgrass", "settings": "foliage treatment at 1.0-2.0 leaf stage of southern crabgrass, examined after 3 weeks", "procedure,_shortened": "(§2)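 Weeds were sown in compost-soil pots in a 25° C glasshouse. Wettable-powder formulations, diluted in water to the prescribed active-ingredient dose, were sprayed at 15 liters per are when southern crabgrass reached the 1.0-2.0 leaf stage. After 3 weeks, growth inhibition versus untreated control was scored 0 (under 20%) to 5 (100%).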"}, "[3]": {"test_system": "southern crabgrass (Digitaria ciliaris)", "test": "Soil treatment test for upland field (Test Example 2): southern crabgrass", "settings": "soil treatment before germination, examined after 3 weeks", "procedure,_shortened": "as §1"}, "[4]": {"test_system": "velvetleaf (Abutilon theophrasti)", "test": "Soil treatment test for upland field (Test Example 2): velvetleaf", "settings": "soil treatment before germination, examined after 3 weeks", "procedure,_shortened": "as §1"}, "common purslane": {"test_system": "common purslane", "test": "Foliage treatment test for upland field (Test Example 3): common purslane", "settings": "foliage treatment at 1.0-2.0 leaf stage of southern crabgrass, examined after 3 weeks", "procedure,_shortened": "as §2"}, "[5]": {"test_system": "Japanese bulrush (Scirpus juncoides)", "test": "Weed control test for paddy field (Test Example 1): Japanese bulrush", "settings": "paddy pots, treated at 1.0 leaf stage of barnyard grass, examined after 3 weeks", "description": "(§3) Paddy field soil was filled in 1/10,000 are pots, kneaded with adequate amounts of water and chemical fertilizer, seeded with barnyard grass (Echinochloa crusgalli), Monochoria (Monochoria vaginalis), Japanese bulrush (Scirpus juncoides) and flat sedge (Cyperus serotinus), and further transplanted with 2.0 leaf stage of rice plant. The pots were maintained under the water-filled condition to a depth of 3 cm.\n(§4) Wettable powders containing the compounds (1) as identified in Table 1, which were formulated following Production Example 2, were diluted with adequate amount of water and applied to the pots dropwise with pippet at a prescribed dose of the active ingredients per are, at 1.0 leaf stage of the barnyard grass.\n(§5) After placing the pots in a glasshouse which was controlled at an average temperature of 25° C. for 3 weeks, herbicidal effect was examined.\n(§6) Evaluation of the herbicidal effect is shown in the following six grades, by comparing the condition of untreated control and growth inhibition (%): • 0: 0%-less than 20% • 1: 20%-less than 40% • 2: 40%-less than 60% • 3: 60%-less than 80% • 4: 80%-less than 100% • 5: 100%."}, "[6]": {"test_system": "flat sedge (Cyperus serotinus)", "test": "Weed control test for paddy field (Test Example 1): flat sedge", "settings": "paddy pots, treated at 1.0 leaf stage of barnyard grass, examined after 3 weeks", "description": "as §3, §4, §5, §6"}, "corn [7]": {"test_system": "corn", "test": "Soil treatment test for upland field (Test Example 2): phytotoxicity to corn", "settings": "soil treatment before germination, examined after 3 weeks"}, "common lambsquaters": {"test_system": "common lambsquaters", "test": "Foliage treatment test for upland field (Test Example 3): common lambsquaters", "settings": "foliage treatment at 1.0-2.0 leaf stage of southern crabgrass, examined after 3 weeks", "procedure,_shortened": "as §2"}, "[8]": {"test_system": "common purslane (Portulaca oleracea)", "test": "Soil treatment test for upland field (Test Example 2): common purslane", "settings": "soil treatment before germination, examined after 3 weeks", "procedure,_shortened": "as §1"}, "wheat [9]": {"test_system": "wheat", "test": "Foliage treatment test for upland field (Test Example 3): phytotoxicity to wheat", "settings": "foliage treatment at 1.0-2.0 leaf stage of southern crabgrass, examined after 3 weeks", "procedure,_shortened": "(§7)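 Crops sown in compost-mixed soil pots, kept in a glasshouse at 25° C. average. Effect scored after 3 weeks versus untreated control on a 0–5 scale (0 normal growth, 5 complete kill).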"}, "rice plant": {"test_system": "rice plant", "test": "Weed control test for paddy field (Test Example 1): phytotoxicity to rice plant", "settings": "in vivo", "description": "as §3, §4, §5\nEvaluation of phytotoxicity is shown in the following six grades, as compared with the condition of untreated control: • 0: normal growth • 1: little damaged • 2: low damaged • 3: medium damaged • 4: serious damaged • 5: complete killed."}, "slender amaranth": {"test_system": "slender amaranth", "test": "Foliage treatment test for upland field (Test Example 3): slender amaranth", "settings": "foliage treatment at 1.0-2.0 leaf stage of southern crabgrass, examined after 3 weeks", "procedure,_shortened": "as §2"}, "[10]": {"test_system": "Monochoria (Monochoria vaginalis)", "test": "Weed control test for paddy field (Test Example 1): Monochoria", "settings": "paddy pots, treated at 1.0 leaf stage of barnyard grass, examined after 3 weeks", "description": "as §3, §4, §5, §6"}, "[11]": {"test_system": "slender amaranth (Amaranthus viridis)", "test": "Soil treatment test for upland field (Test Example 2): slender amaranth", "settings": "soil treatment before germination, examined after 3 weeks", "procedure,_shortened": "as §1"}, "velvetleaf": {"test_system": "velvetleaf", "test": "Foliage treatment test for upland field (Test Example 3): velvetleaf", "settings": "foliage treatment at 1.0-2.0 leaf stage of southern crabgrass, examined after 3 weeks", "procedure,_shortened": "as §2"}, "[12]": {"test_system": "barnyard grass (Echinochloa crusgalli)", "test": "Weed control test for paddy field (Test Example 1): barnyard grass", "settings": "paddy pots, treated at 1.0 leaf stage of barnyard grass, examined after 3 weeks", "description": "as §3, §4, §5, §6"}, "soybean [13]": {"test_system": "soybean", "test": "Soil treatment test for upland field (Test Example 2): phytotoxicity to soybean", "settings": "soil treatment before germination, examined after 3 weeks"}, "soybean [14]": {"test_system": "soybean", "test": "Foliage treatment test for upland field (Test Example 3): phytotoxicity to soybean", "settings": "foliage treatment at 1.0-2.0 leaf stage of southern crabgrass, examined after 3 weeks", "procedure,_shortened": "as §7"}, "corn [15]": {"test_system": "corn", "test": "Foliage treatment test for upland field (Test Example 3): phytotoxicity to corn", "settings": "foliage treatment at 1.0-2.0 leaf stage of southern crabgrass, examined after 3 weeks", "procedure,_shortened": "as §7"}},
  "data": [
    {"smiles": "COC/C(=C\\c1cccc(C(F)(F)F)c1)c1nc2cc(Cl)ccc2o1", "note": "[Compound 3]", "values": [
      {"measurement": "Herbicidal Effect common lambsquaters", "setting": "[1]; dose 2.5 g ai/a", "result": "5 (100%)"},
      {"measurement": "Herbicidal Effect common lambsquaters", "setting": "[1]; dose 5 g ai/a", "result": "5 (100%)"},
      {"measurement": "Phytotoxicity wheat", "setting": "wheat [2]; dose 2.5 g ai/a", "result": 0},
      {"measurement": "Phytotoxicity wheat", "setting": "wheat [2]; dose 5 g ai/a", "result": 0},
      {"measurement": "Herbicidal Effect southern crabgrass", "setting": "southern crabgrass; dose 2.5 g ai/a", "result": "5 (100%)"},
      {"measurement": "Herbicidal Effect southern crabgrass", "setting": "southern crabgrass; dose 5 g ai/a", "result": "5 (100%)"},
      {"measurement": "Herbicidal Effect southern crabgrass", "setting": "[3]; dose 2.5 g ai/a", "result": "5 (100%)"},
      {"measurement": "Herbicidal Effect southern crabgrass", "setting": "[3]; dose 5 g ai/a", "result": "5 (100%)"},
      {"measurement": "Herbicidal Effect velvetleaf", "setting": "[4]; dose 2.5 g ai/a", "result": "3 (60%-less than 80%)"},
      {"measurement": "Herbicidal Effect velvetleaf", "setting": "[4]; dose 5 g ai/a", "result": "4 (80%-less than 100%)"},
      {"measurement": "Herbicidal Effect common purslane", "setting": "common purslane; dose 2.5 g ai/a", "result": "5 (100%)"},
      {"measurement": "Herbicidal Effect common purslane", "setting": "common purslane; dose 5 g ai/a", "result": "5 (100%)"},
      {"measurement": "Herbicidal Effect Japanese bulrush", "setting": "[5]; dose 2.5 g ai/a", "result": "4 (80%-less than 100%)"},
      {"measurement": "Herbicidal Effect Japanese bulrush", "setting": "[5]; dose 5 g ai/a", "result": "5 (100%)"},
      {"measurement": "Herbicidal Effect Flat sedge", "setting": "[6]; dose 2.5 g ai/a", "result": "3 (60%-less than 80%)"},
      {"measurement": "Herbicidal Effect Flat sedge", "setting": "[6]; dose 5 g ai/a", "result": "5 (100%)"},
      {"measurement": "Phytotoxicity corn", "setting": "corn [7]; dose 2.5 g ai/a", "result": 0},
      {"measurement": "Phytotoxicity corn", "setting": "corn [7]; dose 5 g ai/a", "result": 1},
      {"measurement": "Herbicidal Effect Common lambsquatters", "setting": "common lambsquaters; dose 2.5 g ai/a", "result": "5 (100%)"},
      {"measurement": "Herbicidal Effect Common lambsquatters", "setting": "common lambsquaters; dose 5 g ai/a", "result": "5 (100%)"},
      {"measurement": "Herbicidal Effect common purslane", "setting": "[8]; dose 2.5 g ai/a", "result": "5 (100%)"},
      {"measurement": "Herbicidal Effect common purslane", "setting": "[8]; dose 5 g ai/a", "result": "5 (100%)"},
      {"measurement": "Phytotoxicity wheat", "setting": "wheat [9]; dose 2.5 g ai/a", "result": 1},
      {"measurement": "Phytotoxicity wheat", "setting": "wheat [9]; dose 5 g ai/a", "result": 1},
      {"measurement": "Phytotoxicity Rice plant", "setting": "rice plant", "result": 1},
      {"measurement": "Herbicidal Effect slender amaranth", "setting": "slender amaranth; dose 2.5 g ai/a", "result": "5 (100%)"},
      {"measurement": "Herbicidal Effect slender amaranth", "setting": "slender amaranth; dose 5 g ai/a", "result": "5 (100%)"},
      {"measurement": "Herbicidal Effect Monochoria vaginalis", "setting": "[10]; dose 2.5 g ai/a", "result": "5 (100%)"},
      {"measurement": "Herbicidal Effect Monochoria vaginalis", "setting": "[10]; dose 5 g ai/a", "result": "5 (100%)"},
      {"measurement": "Herbicidal Effect slender amaranth", "setting": "[11]; dose 2.5 g ai/a", "result": "5 (100%)"},
      {"measurement": "Herbicidal Effect slender amaranth", "setting": "[11]; dose 5 g ai/a", "result": "5 (100%)"},
      {"measurement": "Herbicidal Effect velvetleaf", "setting": "velvetleaf; dose 2.5 g ai/a", "result": "5 (100%)"},
      {"measurement": "Herbicidal Effect velvetleaf", "setting": "velvetleaf; dose 5 g ai/a", "result": "5 (100%)"},
      {"measurement": "Herbicidal Effect Barnyard grass", "setting": "[12]; dose 2.5 g ai/a", "result": "5 (100%)"},
      {"measurement": "Herbicidal Effect Barnyard grass", "setting": "[12]; dose 5 g ai/a", "result": "5 (100%)"},
      {"measurement": "Phytotoxicity soybean", "setting": "soybean [13]; dose 2.5 g ai/a", "result": 0},
      {"measurement": "Phytotoxicity soybean", "setting": "soybean [13]; dose 5 g ai/a", "result": 0},
      {"measurement": "Phytotoxicity soybean", "setting": "soybean [14]; dose 2.5 g ai/a", "result": 1},
      {"measurement": "Phytotoxicity soybean", "setting": "soybean [14]; dose 5 g ai/a", "result": 2},
      {"measurement": "Phytotoxicity corn", "setting": "corn [15]; dose 2.5 g ai/a", "result": 1},
      {"measurement": "Phytotoxicity corn", "setting": "corn [15]; dose 5 g ai/a", "result": 1}
    ]}
  ]
}
